Assay results taken from patent US20240228474A1, “ANTIBACTERIAL COMPOUND” (DISCUVA LIMITED, priority 2021, published 2024).
Values after ≈ are worked out from the molar mass of the structure shown.

Assays:
[1] = tested on: Escherichia coli (NCTC 13441); assay: MIC by broth microdilution (CLSI); type: cell-based; settings: NCTC13441, planktonic bacteria, 20-24 hour incubation
Method: (§1) Minimum Inhibitory Concentrations (MICs) versus Escherichia coli (NCTC 13441) and Klebsiella pneumoniae (NCTC 13438) (planktonic bacteria) were determined by the broth microdilution procedure in line with the guidelines of the Clinical and Laboratory Standards Institute (Clinical and Laboratory Standards Institute. Methods for Dilution Antimicrobial Susceptibility Tests for Bacteria That Grow Aerobically, Approved Standard-Eleventh Edition, CLSI document M07, 11 Jan. 2018). The broth dilution method involved a two-fold serial dilution of compounds in 96-well microtitre plates, giving a final concentration range of 0.39-200 μM and a maximum final concentration of 2% DMSO. The bacterial strains tested were Escherichia coli (NCTC 13441) and Klebsiella pneumoniae (NCTC 13438). Strains were grown in cation-adjusted Müller-Hinton broth or on Luria Bertani agar at 37° C. in an ambient atmosphere. The MIC (μM) was determined as the lowest concentration of compound that inhibits growth following a 20-24 hour incubation period.

[2] = tested on: Klebsiella pneumoniae (NCTC 13438); assay: MIC by broth microdilution (CLSI); type: cell-based; settings: NCTC13438, planktonic bacteria, 20-24 hour incubation
Method: as §1

[3] = tested on: Proteus mirabilis (DSM 4479); assay: MIC by broth microdilution (CLSI); type: cell-based; settings: DSM4479
Method: as §1
Minimum Inhibitory Concentrations (MICs) versus Proteus mirabilis (DSM 4479) were determined for compound (I) and comparative compounds (II) and (III) using the methodology outlined above.

[4] = Lipophilicity, Log P measured with SiriusT3 (octanol titration); type: physicochemical; settings: octanol / aqueous sample solution
Method: Log P values of compound (I) and comparative compound (III) were measured using the SiriusT3 instrument from Sirius Analytical by performing an acid-based titration and measuring the shift in pKa when the sample solution is in contact with an immiscible solvent (octanol). Log P for the comparative compound (II) was calculated using Marvin (physico-chemical calculation software). The lipophilicity data for compound (I) and comparative compounds (II) and (III) was collected in separate experiments carried out on different days, and compared in Table 5.

[5] = Volume of distribution (Vss) from mouse plasma profiles; type: in vivo; settings: mice, 5 mg/kg IV bolus, 2 compartment model
Method: The volume of distribution (Vss) of compound (I) and comparative compounds (II) and (III) was determined from analysis of plasma concentration time profiles obtained from rodent species (mice), following 5 mg/kg IV bolus administration respectively. The volume of distribution was obtained by analysing the rodent plasma profiles for compound (I) and comparative compounds (II) and (III) using a 2 compartment IV bolus model in PK Solver (Excel). The volume of distribution data for compound (I) and comparative compound (II) was collected in separate experiments carried out on different days, and compared in Table 6.

[6] = tested on: Klebsiella pneumoniae ATCC 43816; assay: Murine respiratory infection proof-of-concept study, IV bolus; type: in vivo
Method: Compound (I) and comparative compound (III) were evaluated in proof-of-concept studies in murine models for the treatment of a respiratory infection with Gram-negative bacteria of the order Enterobacterales, a bacteraemia or bloodstream infection with Gram-negative bacteria of the order Enterobacterales, and a urinary tract infection with Gram-negative bacteria of the order Enterobacterales. Each dot, triangle or square indicator represents a single mouse. LOD refers to the limit of detection of the bacteria. […] Each of the proof-of-concept studies was carried out separately. By vehicle is meant pharmaceutically acceptable carrier or excipient. For the proof-of-concept study for the treatment of a respiratory infection caused or exacerbated by Gram-negative bacteria of the order Enterobacterales, CD-1 mice were infected with Klebsiella pneumoniae ATCC 43816. Two hours after infection (‘pre-treatment’ in FIG. 2), a vehicle (20% hydroxypropyl β cyclodextrin) containing no compound (I) or comparative compound (III), or a vehicle (20% hydroxypropyl β cyclodextrin) containing compound (I) or comparative compound (III), was administered by IV bolus at 20 mg/kg, TID (8 hrs apart), over one day.

[7] = tested on: Klebsiella pneumoniae ATCC 43816; assay: Further murine respiratory infection study, intravenous infusion; type: in vivo; settings: 26 h
Method: Compound (I) was evaluated in further proof-of-concept studies in murine models for the treatment of a respiratory infection with Gram-negative bacteria of the order Enterobacterales, and a urinary tract infection with Gram-negative bacteria of the order Enterobacterales. Each dot, triangle or square indicator represents a single mouse. LOD refers to the limit of detection of the bacteria. […] Each of the proof-of-concept studies was carried out separately. By vehicle is meant pharmaceutically acceptable excipient or carrier. For the further proof-of-concept study for the treatment of a respiratory infection caused or exacerbated by Gram-negative bacteria of the order Enterobacterales, male CD-1 mice were infected with Klebsiella pneumoniae ATCC 43816. Two hours after infection (‘pre-treatment’ in FIG. 5), mice were either treated with a vehicle control (phosphate buffer) containing no compound (I), or a vehicle (phosphate buffer) containing compound (I), administered by intravenous infusion for 1 hour (QD) with a dose of 20 mg/kg of compound (I). For the mice that received the vehicle control containing no compound (I), and some mice who received the vehicle containing compound (I), an additional 1-hour continuous intravenous infusion was administered 3 hours after the time at which the first administration begun (BID, 3 hrs apart).

[8] = 1 h IV infusion 20 mg/kg twice (BID, 3 hrs apart)

MIC [1]: ≤ 0.39 µM | MIC [2]: 1.56 to 3.13 µM (≈ 0.612 to 1.23 µg/mL) | MIC [3]: 25 µM (≈ 9.81 µg/mL) | logP [4]: 1.6 | Vd [5]: 19.7 L/kg
Compound: Cc1cnccc1-c1[nH]c(N)nc1-c1ccc2c(c1)N(C(=O)C(C)(C)N)CCO2 [Compound (I), 2-amino-1-(6-(2-amino-5-(3-methylpyridin-4-yl)-1H-imidazol-4-yl)-2,3-dihydro-4H-benzo[b][1,4]oxazin-4-yl)-2-methylpropan-1-one]
reduction of bacterial burden in the lung compared to vehicle ([6]; CD-1 mice, IV bolus 20 mg/kg TID over one day, 26 h from initial infection): 6.24 log | more efficacious than comparative compound (III), lung ([6]; difference in log reduction, 26 h): 2 log | reduction of bacterial burden in the lung compared to pre-treatment (stasis levels) ([7]; 1 h IV infusion 20 mg/kg once (QD)): 0.95 log | reduction of bacterial burden in the lung compared to pre-treatment (stasis levels) [7, 8]: 1.80 log | reduction of bacterial burden in the lung compared to vehicle [7, 8]: 5.20 log | reduction of bacterial burden in the lung compared to vehicle ([7]; male CD-1 mice, 1 h IV infusion 20 mg/kg once (QD)): 4.35 log
